# Test: Solubility in methyl ethyl ketone
# Assay type: physicochemical
row,Compound,Solubility in methyl ethyl ketone [wt %]
1,CN1C(=O)NS(=O)(=O)c2ccccc21 [TA01],>2
2,CC1=CC(=O)NS(=O)(=O)O1 [TA02],>10
3,O=C1CS(=O)(=O)OC2=C1CCCC2 [TA03],5.5
4,O=C1NS(=O)(=O)Oc2ccccc21 [TA04],>10
